Measurements from US9889092B2, “Low density lipoprotein nanocarriers for targeted delivery of omega-3 polyunsaturated fatty acids to cancer” (The Board of Regents of the University of Texas System, priority 2013, dated 2018).

Legend:
[1] = Oxidative stability of LDL nanoparticles (peroxide value, HPLC DHA content); assay type: physicochemical; settings: under air at 55° C. for 5 hrs
Description: FIGS. 4A-D. Oxidative stability: (FIG. 4A) HPLC determination of DHA content in LDL nanoparticles and DHA in heptane; (**) p<0.01 DHA in heptane versus LDL-DHA, after 14 days; (***) p<0.001, DHA in heptane versus LDL-DHA, after 21 and 28 days. (FIG. 4B) Peroxide indices of LDL, DHA in heptane, and LDL-DHA nanoparticles. Samples from FIG. 4A and FIG. 4B were stored at ambient conditions and were subjected to HPLC or peroxide analysis at baseline, 7, 14, 21, and 28 days; (**) p<0.01, DHA in heptane versus LDL-DHA after 14 days; (***) p<0.001, LDL or DHA in heptane versus LDL-DHA after 21 and 28 days; (****) p<0.0001, LDL versus LDL-DHA, after 28 days. […] DHA content is expressed as a percentage of baseline control. The peroxide index is expressed as mEq of peroxide/Kg of lipid.
Oxidative stability of LDL nanoparticles. […] Absorbance of red color formed from the presence of ferric ion was measured at 500 nm using UV-visible spectrophotometer (UV 1800, Shimadzu, USA) and the concentration was determined using a calibration curve of ferric chloride (FeCl3). […] The peroxide value was calculated using the following formula: PV=[Fe3+]/(55.84×g of lipids×2) where 55.84 is the molecular weight of iron. Results were expressed as mEq peroxide/kg lipid.

[2] = test system: TIB-75 cells; experiment: Cell toxicity assay (MTS), TIB-75; assay type: cell-based, mouse; settings: 40 μM LDL-DHA with 100 or 200 μM Vitamin E, 72 hours
Description: Cell culture. The mouse liver cell line TIB-73 (BNL CL.2) and its malignant counterpart TIB-75 (BNL 1MEA.7R.1) were obtained from ATCC (Manassas, Va.) and cultured in Dulbeco's modified Eagle's medium (DMEM) supplemented with 10% fetal bovine serum (FBS). Cells were grown at 37° C. in an atmosphere of 5% CO2 in a humidified incubator.
Cell toxicity assay (MTS). Each cell type was seeded in 96-well plates (2×10^3 cells/well). After 48 hrs of culture, the cells received various concentrations of the LDL-DHA nanoparticles ranging from 0 to 100 μM (DHA). For controls (LDL-OA/TO) dosing went as high as 200 μM. At the end of the 72 hr treatment period, the cell viability was measured by the MTS assay as recommended by the manufacturer. In brief, 20 μL MTS solution was added to each well and cells were incubated at 37° C. for 4 hrs followed by absorbance readings at 490 nm. The relative cell viability is expressed as a percentage of the non treated controls.

| oxidative stability in final stress test [1] | Molecule | effect of co-incubation on LDL-DHA cytotoxicity in TIB-75 cells [2] |
| --- | --- | --- |
| significant degradative peroxidation | CC/C=C\C/C=C\C/C=C\C/C=C\C/C=C\C/C=C\CCC(=O)O [DHA in heptane, docosahexaenoic acid] | – |
| – | vitamin E | effectively abrogate the cytotoxicity of LDL-DHA |
